Data reported in patent US11389423B2, “Pharmaceutical composition, excipient for the composition and use of the composition” (priority 2018, dated 2022).

Assays:
[1] = system: male rabbits; test: Electrocardiography; assay type: in vivo, New Zealand rabbits; settings: male rabbits, 17, 51 and 170 mg/kg by gavage, one hour after treatment
Description: (§1) Male New Zealand rabbits (n=6 per group) were used for pharmacological safety tests. All tests were performed orally (route recommended for humans) and the investigated parameters were determined after a single administration of CBD-SINT. CBD-SINT doses were determined by allometric extrapolation from the average dose used in human patients (25 mg/kg).
(§2) The dose of 51 mg/kg was used as the intermediate dose, stipulating a higher and a lower dose. Three dose ranges were used according to the Guide for Conducting Non-Clinical Toxicology and Pharmacological Safety Studies Necessary for Drug Development (ANVISA, 2013; Version 1.2). Thus, the doses used were 17, 51 and 170 mg/kg of CBD-SINT.
a) Electrocardiography, wherein after a 6-h fasting, three doses of CBD (17, 51 and 170 mg/kg) were administered to different groups of male rabbits by gavage. Placebo was administered to the control group (1 mL/kg). One hour after treatments, all rabbits remained conscious in the supine position. Four electrodes (RL, RA, LL, and LA) were placed in the folds of both elbows and both knees. The V1 electrode was positioned in the 4th intercostal space to the right of the sternum. […] An acclimatization time of 5 min was waited, and then the cardiographic electric waves were recorded for 5 min. The electrocardiography was recorded with an ECG recorder (WinCardio, Micromed, Brasilia, Brazil).

[2] = system: male rabbits; test: Effects on respiratory system, respiratory rate; assay type: in vivo, New Zealand rabbits; settings: one hour after treatment
Description: as §1, §2
After 6-h fasting, three doses of CBD-SINT (17, 51 and 170 mg/kg) were administered to different groups of male rabbits by gavage. Placebo was administered to the control group (1 mL/kg). One hour after treatments, all rabbits remained conscious in the prone position. The respiratory rate was determined using a Kofranyi-Michaelis respirometer (Murphy, 2002). For arterial blood gas analysis, arterial blood samples were taken from the central ear artery and immediately processed. All parameters below were determined on a Cobas b 221 multiparametric blood gas analyzer (Roche Diagnostics, Rotkreuz, Switzerland): pH, PCO2 (mm Hg), PO2 (mm Hg), SO2(%), Htc (%), tHb (g/dL), Na+ (mmol/L), K+ (mmol/L), Ca2+ (mmol/L), Cl− (mmol/L), glucose (mg/dL), lactate (mmol/L), O2Hb (%), HHb (%), P50 (mm Hg), H+ (nmol/L), BE (nmol/L), BEecf (nmol/L), BB (mmol/L), cHCO3 (mmol/L), ctCO2 (B) (mmol/L), ctCO2 (P) (mmol/L) and ctO2 (% by volume).

[3] = system: rats with 6-OHDA microinfusion into the substantia nigra; test: Morris water maze (cued test/memory version), 6-OHDA model; assay type: in vivo; settings: 6-OHDA rats, 36 or 120 mg/kg orally, day 18 to day 28
Description: For the experiments with 6-OHDA, the animals were divided into the following groups: • 6-OHDA+placebo • 6-OHDA+CBD-SINT 12 mg/kg • 6-OHDA+CBD-SINT 36 mg/kg • 6-OHDA+CBD-SINT 120 mg/kg • Sham+placebo • Naive
After the recovery period, CBD-SINT and placebo were administered orally (gavage) for 28 days. Locomotor activity tests were performed only at the end of treatments (day 28). The memory tests (Morris water maze) were performed daily from day 18 to day 28 (FIG. 14).
The rats were submitted to stereotactic surgery (stereotactic—David Kopf, model 957L) and received bilateral microinfusion of MPTP or 6-OHDA (different groups of rats) directly into the substantia nigra. For surgery, the following stereotaxic coordinates were used: anteroposterior: 5.0 mm from the bregma; mediolateral: ±2.1 mm from the midline and dorsoventral: −7.7 mm from the cranial vault (Paxinos and Watson, 1986). Then, 100 μg MPTP (diluted in 1 μL saline, with a flow of 0.33 μL/min) or 8 μg 6-OHDA (diluted in 2 μL saline with 0.2 μg/μL ascorbic acid, with a flow rate of 0.33 μL/min) were injected. […]
The animals were subjected to the same procedure until the four starting points are completed. […] The latency (time it takes the animals to find the platform) and the speed of the animals were quantified by the 2020 Plus Tracking System software.

C=C(C)[C@@H]1CCC(C)=C[C@H]1c1c(O)cc(CCCCC)cc1O [CBD-SINT, Cannabidiol]
PR, QRS or QT segments [1]: no significant changes | amplitudes of P, R or T waves vs placebo [1]: no changes | respiratory rate ([2]; 17 mg/kg by gavage): 55±6.48 bpm | respiratory rate ([2]; 51 mg/kg by gavage): 57±5.43 bpm | respiratory rate ([2]; 170 mg/kg by gavage): 56±5.66 bpm | latency time to find the platform (memory deficit) [3]: did not show this deficit
